Test results as given in ChEMBL document CHEMBL1201862, “PubChem BioAssay data set” (2004).
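Where inhibition never reached the appropriate level, the endpoint shown equals the highest concentration tested. Otherwise, values were interpolated linearly from a five-concentration, 48-hour dose response in 96-well plates. GI50: concentration for 50% inhibition of growth.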 Active and inactive are the calls of the source. Cut-off read from the data, not from the text of the source: active = GI50 up to about 1.1 µM and inactive = higher.

Key:
Test in all cases: inhibition of tumour cell growth, NCI panel, 48 h
DU-145 = test system: DU-145
TK-10 = test system: TK-10
UO-31 = test system: UO-31
BT-549 = test system: BT-549
OVCAR-4 = test system: OVCAR-4
PC-3 = test system: PC-3
IGROV-1 = test system: IGROV-1
SF-295 = test system: SF-295
NCI-H226 = test system: NCI-H226
HOP-62 = test system: HOP-62
SK-MEL-5 = test system: SK-MEL-5
OVCAR-5 = test system: OVCAR-5
Malme-3M = test system: Malme-3M
EKVX = test system: EKVX
A549 = test system: A549
MCF7 = test system: MCF7
HCT-116 = test system: HCT-116
T47D = test system: T47D
SK-MEL-2 = test system: SK-MEL-2
UACC-257 = test system: UACC-257

Compound	GI50 (DU-145)	GI50 (TK-10)	GI50 (UO-31)	GI50 (BT-549)	GI50 (OVCAR-4)	GI50 (PC-3)	GI50 (IGROV-1)	GI50 (SF-295)	GI50 (NCI-H226)	GI50 (HOP-62)	GI50 (SK-MEL-5)	GI50 (OVCAR-5)	GI50 (Malme-3M)	GI50 (EKVX)	GI50 (A549)	GI50 (MCF7)	GI50 (HCT-116)	GI50 (T47D)	GI50 (SK-MEL-2)	GI50 (UACC-257)
COC(=O)C(NC(=O)C12CCC(C)(C(=O)O1)C2(C)C)c1cc(C(C)(C)C)c(O)c(C(C)(C)C)c1 (centres undefined)	> 100 µM (inactive)	57.7 µM (inactive)	95.9 µM (inactive)	> 100 µM (inactive)	> 100 µM (inactive)	67 µM (inactive)	> 100 µM (inactive)	> 100 µM (inactive)	> 100 µM (inactive)	> 100 µM (inactive)	21.7 µM (inactive)	> 100 µM (inactive)	> 100 µM (inactive)	> 100 µM (inactive)	> 100 µM (inactive)	47.5 µM (inactive)	64.3 µM (inactive)	81.7 µM (inactive)	> 100 µM (inactive)	
O=P1(O)c2ccccc2CSCc2ccccc21	> 100 µM (inactive)	> 100 µM (inactive)	> 100 µM (inactive)	> 100 µM (inactive)	> 100 µM (inactive)	> 100 µM (inactive)	> 100 µM (inactive)	> 100 µM (inactive)	> 100 µM (inactive)	> 100 µM (inactive)	> 100 µM (inactive)	> 100 µM (inactive)		> 100 µM (inactive)	> 100 µM (inactive)	> 100 µM (inactive)	> 100 µM (inactive)	> 100 µM (inactive)	> 100 µM (inactive)	> 100 µM (inactive)
N#C/C(=C\N1CCNC1=S)C(=O)c1ccc2ccccc2c1	> 100 µM (inactive)	> 100 µM (inactive)	> 100 µM (inactive)	> 100 µM (inactive)	74 µM (inactive)	97.1 µM (inactive)	> 100 µM (inactive)	> 100 µM (inactive)	> 100 µM (inactive)	> 100 µM (inactive)	> 100 µM (inactive)	> 100 µM (inactive)		> 100 µM (inactive)	> 100 µM (inactive)	> 100 µM (inactive)	> 100 µM (inactive)	67 µM (inactive)	> 100 µM (inactive)	> 100 µM (inactive)
CC(C)CC(=O)NC(NC(C)C)(C(F)(F)F)C(F)(F)F	> 100 µM (inactive)	> 100 µM (inactive)	> 100 µM (inactive)	> 100 µM (inactive)	> 100 µM (inactive)	> 100 µM (inactive)	> 100 µM (inactive)		> 100 µM (inactive)	> 100 µM (inactive)	> 100 µM (inactive)		> 100 µM (inactive)	> 100 µM (inactive)	> 100 µM (inactive)	> 100 µM (inactive)	> 100 µM (inactive)	> 100 µM (inactive)	> 100 µM (inactive)	> 100 µM (inactive)
Cc1oncc1/N=C1\C=C(O)C(=O)c2ccccc21	15 µM (inactive)	25.1 µM (inactive)	14.1 µM (inactive)	12.4 µM (inactive)	3.62 µM (inactive)	2.42 µM (inactive)	3.57 µM (inactive)	7.66 µM (inactive)	19 µM (inactive)	17.4 µM (inactive)	1.95 µM (inactive)	13.5 µM (inactive)	3.45 µM (inactive)	14.6 µM (inactive)	3.9 µM (inactive)	2.68 µM (inactive)	3.16 µM (inactive)	3.3 µM (inactive)		2.77 µM (inactive)
CC(C)(C)OC(=O)NCCC1CNc2ccccc21 (centres undefined)	> 100 µM (inactive)	> 100 µM (inactive)	> 100 µM (inactive)	> 100 µM (inactive)	> 100 µM (inactive)	> 100 µM (inactive)	> 100 µM (inactive)	> 100 µM (inactive)		> 100 µM (inactive)	> 100 µM (inactive)	> 100 µM (inactive)	> 100 µM (inactive)	> 100 µM (inactive)	> 100 µM (inactive)	> 100 µM (inactive)	> 100 µM (inactive)	> 100 µM (inactive)	> 100 µM (inactive)	> 100 µM (inactive)
COc1cccc(/N=N/C(=NNC(=O)c2ccc(C)cc2)c2ccc(N(C)C)cc2)c1	> 100 µM (inactive)	> 100 µM (inactive)	> 100 µM (inactive)	> 100 µM (inactive)	> 100 µM (inactive)	> 100 µM (inactive)	> 100 µM (inactive)	> 100 µM (inactive)	> 100 µM (inactive)		98.2 µM (inactive)	> 100 µM (inactive)		> 100 µM (inactive)	> 100 µM (inactive)	> 100 µM (inactive)	> 100 µM (inactive)	0.832 µM (active)	> 100 µM (inactive)	> 100 µM (inactive)
O=S(=O)(O)c1ccc(/N=N/c2ccccc2)cc1	> 100 µM (inactive)	> 100 µM (inactive)	> 100 µM (inactive)	> 100 µM (inactive)	> 100 µM (inactive)	> 100 µM (inactive)	> 100 µM (inactive)	> 100 µM (inactive)	> 100 µM (inactive)	> 100 µM (inactive)	> 100 µM (inactive)	> 100 µM (inactive)		> 100 µM (inactive)	> 100 µM (inactive)	> 100 µM (inactive)	> 100 µM (inactive)	> 100 µM (inactive)	> 100 µM (inactive)	> 100 µM (inactive)
COc1ccc(/N=C2\C(=N/c3ccc(OC)cc3)N(c3ccccc3[N+](=O)[O-])C(=S)N2c2ccc(OC)cc2)cc1	> 100 µM (inactive)	> 100 µM (inactive)	78 µM (inactive)	34.4 µM (inactive)		91.6 µM (inactive)	> 100 µM (inactive)	51.8 µM (inactive)	61.9 µM (inactive)	71.3 µM (inactive)	35.2 µM (inactive)	> 100 µM (inactive)		99.3 µM (inactive)	> 100 µM (inactive)	> 100 µM (inactive)	35.6 µM (inactive)	26 µM (inactive)	> 100 µM (inactive)	
COc1cc(O)c(C(=O)/C=C/c2ccc(O)cc2)cc1Oc1ccc(/C=C/C(=O)c2ccc(O)cc2O)cc1 [RHUSCHALCONE III]	10.2 µM (inactive)	9.79 µM (inactive)	9.48 µM (inactive)	8.79 µM (inactive)	8.07 µM (inactive)	7.21 µM (inactive)	7.66 µM (inactive)	10.1 µM (inactive)		10.8 µM (inactive)	7.36 µM (inactive)	13.7 µM (inactive)	8.38 µM (inactive)	13 µM (inactive)	14.8 µM (inactive)	8.69 µM (inactive)	7.85 µM (inactive)	15.3 µM (inactive)	10.1 µM (inactive)	10.1 µM (inactive)
O=c1oc2ccc3ccccc3c2cc1-c1cn2ccsc2n1	19.9 µM (inactive)	17.9 µM (inactive)	14.6 µM (inactive)	16.8 µM (inactive)	19.6 µM (inactive)	26.7 µM (inactive)	0.646 µM (active)	78.2 µM (inactive)		34.5 µM (inactive)	15.4 µM (inactive)	24.9 µM (inactive)	21.2 µM (inactive)	16.1 µM (inactive)	49.9 µM (inactive)	3.03 µM (inactive)	16 µM (inactive)	13 µM (inactive)	> 100 µM (inactive)	24.8 µM (inactive)
CNC(=O)OCCN1c2ccccc2Sc2ccccc21	> 100 µM (inactive)	> 100 µM (inactive)	69.2 µM (inactive)	> 100 µM (inactive)	> 100 µM (inactive)	46.6 µM (inactive)	42.1 µM (inactive)	60.8 µM (inactive)	47.9 µM (inactive)	14.1 µM (inactive)	50.4 µM (inactive)	> 100 µM (inactive)	> 100 µM (inactive)	17.1 µM (inactive)	87.1 µM (inactive)	> 100 µM (inactive)	74 µM (inactive)	> 100 µM (inactive)		> 100 µM (inactive)
O=C(CCCCCNC(=O)c1ccc(Cl)cc1)NO	4.17 µM (inactive)	3.49 µM (inactive)	6.53 µM (inactive)	21.9 µM (inactive)	20.6 µM (inactive)	2.86 µM (inactive)	5.16 µM (inactive)	8.91 µM (inactive)	15.8 µM (inactive)		3.24 µM (inactive)	1.64 µM (inactive)	2.61 µM (inactive)	8.97 µM (inactive)	8.24 µM (inactive)	6.21 µM (inactive)	2.56 µM (inactive)	1.41 µM (inactive)	2.33 µM (inactive)	2.72 µM (inactive)
C=C1C(=O)O[C@H]2[C@@H](O)[C@H](C)CCC[C@]3(C)O[C@H]3CC[C@@]3(C)O[C@@H]3C[C@@H]12	6.52 µM (inactive)		6.04 µM (inactive)	1.24 µM (inactive)	2.66 µM (inactive)	7.43 µM (inactive)	5.24 µM (inactive)	8.55 µM (inactive)	7.43 µM (inactive)	7.4 µM (inactive)	4.04 µM (inactive)	6.22 µM (inactive)		4.06 µM (inactive)	9.33 µM (inactive)	2.08 µM (inactive)	1.75 µM (inactive)	7.66 µM (inactive)	9.2 µM (inactive)	
O=C(Nc1ccc(Cl)cc1)NS(=O)(=O)c1coc2ccccc2c1=O	> 10 µM (inactive)	> 10 µM (inactive)		> 10 µM (inactive)	> 10 µM (inactive)	> 10 µM (inactive)	> 10 µM (inactive)	> 10 µM (inactive)	> 10 µM (inactive)	> 10 µM (inactive)	> 10 µM (inactive)	> 10 µM (inactive)	> 10 µM (inactive)	> 10 µM (inactive)	> 10 µM (inactive)	> 10 µM (inactive)	> 10 µM (inactive)	> 10 µM (inactive)	> 10 µM (inactive)	> 10 µM (inactive)
